# Source: paper PMC6116703, “Ethenesulfonyl fluoride derivatives as telomerase inhibitors: structure-based design, SAR, and anticancer evaluation in vitro” (Journal of Enzyme Inhibition and Medicinal Chemistry, 2018)
# Read-outs that look alike come from different tables or passages of the source.
# Columns and labels:
# human melanoma cell A375 = assay: Cell proliferation (MTT) assay, A375; assay type: cell-based
# Protocol: (§1) The antiproliferative activities evaluation was conducted by using a modified procedure as described in the literature. Briefly, target tumour cells were grown to log phase in RPMI 1640 medium supplemented with 10% fetal bovine serum. After diluting to 3 × 10^4 cells mL^−1 with the complete medium, 100 µL of the obtained cell suspension was added to each well of 96-well culture plates. The subsequent incubation was performed at 37 °C, 5% CO2 atmosphere for 24 h before subjecting to antiproliferation assessment. The tested samples at pre-set concentrations were added to six wells with Doxorubicin (AMD) co-assayed as a positive reference. After 48 h of exposure period, 25 µL of PBS containing 2.5 mg·mL^−1 of MTT was added to each well. After 4 h, the medium was replaced by 150 µL DMSO to dissolve the purple formazan crystals produced. The absorbance at 570 nm of each well was measured using an ELISA plate reader. The data represented the mean of three experiments in triplicate and were expressed as means ± SD using Student’s test.
# [1] = tested on: human breast cancer cell MDA-MB-231; assay: Cell proliferation (MTT) assay, MDA-MB-231; assay type: cell-based
# Protocol: as §1
# [2] = tested on: human hepatoma cell SMMC-7721; assay: Cell proliferation (MTT) assay, SMMC-7721; assay type: cell-based; conditions: read-out: IC50 SMMC-7721
# Protocol: as §1
# [3] = tested on: human gastric cancer cells SGC-7901; assay: Cell proliferation (MTT) assay, SGC-7901; assay type: cell-based; conditions: read-out: IC50 SGC-7901
# Protocol: as §1
# [4] = tested on: human gastric cancer cells MGC-803; assay: Cell proliferation (MTT) assay, MGC-803; assay type: cell-based; conditions: read-out: IC50 MGC-803
# Protocol: as §1
# telomerase = target: T1, telomerase (Homo sapiens, UniProt O14746); assay: Telomerase activity TRAP-PCR-ELISA assay (A375 cell extract); assay type: biochemical; conditions: for IC50: IC50 inhibitory activity against telomerase
# T1 construct: endogenous in cells; host or cells: A375 human melanoma cells
# T1 sequence (O14746 whole entry): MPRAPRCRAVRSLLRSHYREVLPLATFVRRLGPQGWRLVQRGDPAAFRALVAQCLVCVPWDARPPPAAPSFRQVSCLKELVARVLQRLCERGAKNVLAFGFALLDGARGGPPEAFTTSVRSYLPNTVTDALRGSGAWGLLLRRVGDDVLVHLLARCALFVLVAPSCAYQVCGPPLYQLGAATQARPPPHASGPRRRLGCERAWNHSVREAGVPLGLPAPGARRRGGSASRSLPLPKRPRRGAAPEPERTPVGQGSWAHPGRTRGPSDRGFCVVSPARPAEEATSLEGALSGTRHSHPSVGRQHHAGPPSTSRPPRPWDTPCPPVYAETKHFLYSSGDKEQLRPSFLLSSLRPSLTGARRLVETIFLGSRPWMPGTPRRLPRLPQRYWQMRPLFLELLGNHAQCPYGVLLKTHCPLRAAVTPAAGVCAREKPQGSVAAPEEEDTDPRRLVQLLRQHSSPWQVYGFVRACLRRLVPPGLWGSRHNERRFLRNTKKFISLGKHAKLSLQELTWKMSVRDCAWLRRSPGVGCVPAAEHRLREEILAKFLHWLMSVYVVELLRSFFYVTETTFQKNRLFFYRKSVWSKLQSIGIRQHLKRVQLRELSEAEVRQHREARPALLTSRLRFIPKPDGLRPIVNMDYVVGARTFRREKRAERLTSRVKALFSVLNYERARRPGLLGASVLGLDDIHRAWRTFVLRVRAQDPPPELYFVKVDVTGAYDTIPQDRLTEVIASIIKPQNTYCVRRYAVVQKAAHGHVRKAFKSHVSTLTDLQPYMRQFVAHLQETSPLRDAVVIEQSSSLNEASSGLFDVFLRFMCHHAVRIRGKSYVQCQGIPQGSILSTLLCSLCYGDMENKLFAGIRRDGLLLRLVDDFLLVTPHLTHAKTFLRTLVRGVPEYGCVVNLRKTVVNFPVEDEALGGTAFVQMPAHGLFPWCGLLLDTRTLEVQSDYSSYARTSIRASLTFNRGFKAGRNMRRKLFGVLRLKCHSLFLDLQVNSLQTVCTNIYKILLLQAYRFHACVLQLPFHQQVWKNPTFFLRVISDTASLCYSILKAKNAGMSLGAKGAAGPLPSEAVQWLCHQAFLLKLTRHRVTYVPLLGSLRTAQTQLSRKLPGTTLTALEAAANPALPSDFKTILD
# Protocol: Thirty-six compounds were tested in a search for inhibitors of telomerase activity using the TRAP-PCR-ELISA assay. In detail, the A375 cells were firstly maintained in RPMI 1640 buffer (Hyclone, Miami, FL), supplemented with 10% fetal bovineserum (GIBCO, New York, NY), streptomycin (0.1 mg/mL) and penicillin (100 IU/mL) at 37 °C in a humidified atmosphere containing 5% CO2. After trypsinisation, 5 × 10^4 cultured cells in logarithmic growth were seeded into T25 flasks (Corning, New York, NY) and cultured to allow to adherence. […] After 24 h treatment, the cells were harvested by cell scraper orderly followed by washing once with PBS. The cells were lysed in 150 µL RIPA cell lysis buffer (Santa Cruz, Santa Cruz, CA), and incubated on ice for 30 min. The cellular supernatants were obtained via centrifugation at 12,000g for 20 min at 4 °C and stored at –80 °C. The TRAP-PCR-ELISA assay was performed using a telomerase detection kit (Roche, Basel, Switzerland) according to the manufacturer’s protocol. In brief, 2 µL of cell extracts were mixed with 48 µL TRAP reaction mixtures. TRAP primers and Taq polymerase are incubated at 25 °C for 30 min. PCR was then initiated at 94 °C, 120 s for predenaturation and performed using 35 cycles each consisting of 94 °C for 30 s, 50 °C for 30 s, 72 °C for 90 s. Then 20 µL of PCR products were hybridised to a digoxigenin (DIG)-labelled telomeric repeat specific detection probe. And the PCR products were immobilised via the biotin-labelled primer to a streptavidin-coated microtiter plate subsequently. The immobilised DNA fragments were detected with a peroxidase-conjugated anti-DIG antibody and visualised following the addition of the stop regent. The microtitre plate was assessed on TECAN Infinite M200 microplate reader (Mannedorf, Switzerland) at a wavelength of 490 nm, and the final value were presented as mean ± SD[23].
# [5] = tested on: human normal liver cell (L-02); assay: Proliferative inhibition assay of human normal cell L-02 (MTT); assay type: cell-based; conditions: normal liver cells
# Protocol: as §1
# (§2) In order to determine the selective cancer cell toxicity of some title compounds. We subsequently conducted a proliferative inhibition assay with human normal liver cell (L-02) and gastric mucosa cell (GES-1).
# [6] = tested on: gastric mucosa cell (GES-1); assay: Proliferative inhibition assay of human normal cell GES-1 (MTT); assay type: cell-based
# Protocol: as §1, §2
# [7] = antiproliferative, MTT, 48 h exposure, read-out: IC50 A375
# [8] = antiproliferative, MTT, 48 h exposure, read-out: IC50 MDA-MB-231
# [9] = antiproliferative, MTT, 48 h exposure
# [10] = Homo sapiens, A-375, 48 h, read-out: IC50 A375, antiproliferative, MTT, 48 h exposure
# [11] = read-out: IC50 A375, antiproliferative, MTT, 48 h exposure
# [12] = Homo sapiens, MDA-MB-231, 48 h, read-out: IC50 MDA-MB-231, antiproliferative, MTT, 48 h exposure
# [13] = TRAP-PCR-ELISA, A375 cells, 24 h treatment
# [14] = Homo sapiens, GES1, normal gastric mucosa cells
Structure (SMILES),IC50 (human melanoma cell A375; [10]) [µM],"IC50 [1, 12] [µM]","IC50 ([2]; Homo sapiens, SMMC-7721, 48 h) [µM]","IC50 ([3]; Homo sapiens, SGC-7901, 48 h) [µM]",IC50 (telomerase; [13]) [µM],IC50 ([5]; Homo sapiens) [µM],"IC50 [6, 14] [µM]",other results
CC(C)(C)c1ccc(/C=C/C=C/S(=O)(=O)F)cc1 [Compound 50],–,–,–,–,–,–,–,"IC50 (human melanoma cell A375; [7]): 20.7 ± 1.39 µM; IC50 [1, 8]: 31.6 ± 1.2 µM; IC50 [2, 9]: 29.1 ± 1.27 µM; IC50 [3, 9]: 26.9 ± 0.56 µM"
O=S(=O)(F)/C=C/c1cccc(/C=C/S(=O)(=O)F)c1 [Compound 70],~3,4.22 ± 0.2,3 ± 0.18,5.38 ± 0.3,1.01 ± 0.13,–,–,"IC50 (human melanoma cell A375; [11]): 3.09 ± 0.19 µM; IC50 ([4]; Homo sapiens, MGC-803, 48 h): 3.15 ± 0.27 µM"
O=S(=O)(F)/C=C/c1cc(Cl)nc(Cl)c1 [Compound 80],–,–,–,26.8 ± 1.01,49.3 ± 2.55,–,–,–
O=S(=O)(F)/C=C/C=C/c1ccccc1 [Compound 48],27.4 ± 1.5,39.7 ± 1.39,51 ± 1.91,49.1 ± 1.39,40.2 ± 1.3,–,–,–
COc1cc(/C=C/C=C/S(=O)(=O)F)cc(OC)c1 [Compound 56],6.92 ± 0.44,12.2 ± 0.92,19.3 ± 0.82,34.5 ± 1.04,3.2 ± 0.55,–,–,–
O=S(=O)(F)/C=C/c1cccc2c1sc1ccccc12 [Compound 43],–,–,–,–,–,–,–,"IC50 (human melanoma cell A375; [7]): 38.6 ± 0.61 µM; IC50 [1, 8]: 44 ± 1.2 µM; IC50 [2, 9]: 34.5 ± 0.77 µM; IC50 [3, 9]: 24.8 ± 0.89 µM"
O=S(=O)(F)/C=C/c1cc(Cl)cc(Cl)c1 [Compound 69],8.79 ± 0.61,7.95 ± 0.4,11.5 ± 0.39,36.8 ± 1.25,4.22 ± 0.71,–,–,"IC50 ([4]; Homo sapiens, MGC-803, 48 h): 25.1 ± 0.54 µM"
CC(=O)c1ccccc1/C=C/S(=O)(=O)F [Compound 25],–,–,–,–,–,2450 ± 250,2800 ± 310,IC50 inhibitory activity against telomerase (telomerase; [13]): no
COc1ccc(Cl)cc1/C=C/S(=O)(=O)F [Compound 71],8.65 ± 0.33,8.09 ± 0.52,23.2 ± 0.78,–,6.08 ± 1.3,–,–,"IC50 ([4]; Homo sapiens, MGC-803, 48 h): 20.8 ± 0.79 µM"
O=S(=O)(F)/C=C/c1ccc2ccccc2c1 [Compound 31],~3,24.1 ± 1.18,33.5 ± 0.88,–,0.81 ± 0.07,1410 ± 100,1650 ± 180,IC50 (human melanoma cell A375; [11]): 3.49 ± 0.2 µM
O=S(=O)(F)/C=C/c1ccc(-c2ccccc2)cc1 [Compound 5],5.84 ± 0.33,8.39 ± 0.89,4.05 ± 0.2,32.9 ± 1.85,0.71 ± 0.28,1330 ± 150,2000 ± 250,telomerase potency relative to positive control staurosporine (telomerase; ratio of telomerase IC50 values vs staurosporine): 12 times
O=S(=O)(F)/C=C/c1cccc(-c2ccccc2)c1 [Compound 75],9.27 ± 0.91,21.3 ± 1.04,32.1 ± 1.02,21.9 ± 0.61,4.4 ± 2,2440 ± 220,1890 ± 170,–
CC(C)c1cccc(/C=C/S(=O)(=O)F)c1 [Compound 74],–,–,–,–,–,–,–,"IC50 (human melanoma cell A375; [7]): 26.8 ± 1.22 µM; IC50 [1, 8]: 34.7 ± 1.2 µM; IC50 [3, 9]: 31.8 ± 0.82 µM; IC50 [4, 9]: 35.3 ± 1.25 µM"
"O=S(=O)(F)/C=C/C=C/c1ccc(/C=C/S(=O)(=O)F)cc1 [Compound 57, (1E,3E)-4-(4-((E)-2-(fluorosulfonyl)vinyl)phenyl)buta-1,3-diene-1-sulfonyl fluoride]",~3,3.22 ± 0.18,–,–,0.97 ± 0.12,< 2000,< 2000,IC50 (human melanoma cell A375; [11]): 1.58 ± 0.06 µM; IC50 [5]: 2010 ± 160 µM; IC50 ([6]; normal gastric mucosa cells): 2190 ± 180 µM
O=S(=O)(F)/C=C/c1ccc(F)cc1 [Compound 6],5.99 ± 0.49,–,15.9 ± 0.35,–,2.98 ± 0.59,–,–,"IC50 ([1]; read-out: IC50 MDA-MB-231, antiproliferative, MTT, 48 h exposure): 9.2 ± 1.27 µM; IC50 ([4]; Homo sapiens, MGC-803, 48 h): 44.2 ± 1.25 µM"
